# Data published in US12414940B2, “Method of treating malignant tumor by azabicyclic compound” (TAIHO PHARMACEUTICAL CO., LTD., priority 2018, dated 2025).
# Key:
# [1] = Quantification of plasma, tumor and retinal tissue exposure in tumor-bearing rats; assay type: in vivo, F344 nude rats
# Experimental: After the administration, plasma, the retina, and tumor were collected according to a sampling schedule. The retina or tumor samples were homogenized in phosphate-buffered saline. The plasma and the homogenized samples were analyzed by liquid chromatography-tandem mass spectrometry or high-performance liquid chromatography. The pharmacokinetics of the compound 1 were calculated by use of the non-compartmental analysis method (Methods Mol Biol 2012; 929: 377-89).
# [2] = tested on: patients with local progressive unresectable or metastatic GIST; assay: Study in GIST patients: progression-free survival (RECIST Guideline Version 1.1); assay type: in vivo, human; conditions: 160 mg/body/day oral, 5 consecutive days and 2-day withdrawal period
# Experimental: (§1) Purpose: In order to evaluate the effectiveness and safety, etc. of compound 1, this study was conducted for the purpose of evaluating the effectiveness and safety, etc. of the compound 1, targeting patients with local progressive unresectable or metastatic GIST who received the administration of imatinib, sunitinib or regorafenib in the past.
# (§2) From the results of the study of Example 1, this study was carried out according to a schedule involving administration for 5 consecutive days and 2-day withdrawal period. The daily dose of the compound 1 was 160 mg/body/day for oral administration. One cycle was set to 21 days. The administration of the compound 1 was continued until the end date of the clinical trial or any of predetermined criterion for discontinuation were applicable.
# For the evaluation of an antitumor effect, CT scan was carried out before the start of administration, every 3 weeks for subsequent 6 weeks, every 6 weeks for subsequent 3 months, and then every 8 weeks until the end of the test. Progression-free survival (PFS) stipulated by RECIST Guideline Version 1.1 was evaluated.
# solid cancer patients = assay: Phase I study in solid cancer patients: tumor response by RECIST Guideline Version 1.1; assay type: in vivo, human
# Experimental: Purpose: This study was conducted for the purpose of determining a maximum tolerated dose (MTD) and estimating a recommended dose (RD) and an administration method when compound 1 was administered with one cycle set to 21 days targeting solid cancer patients, and of evaluating safety and observing an antitumor effect when the compound 1 was administered with one cycle set to 21 days targeting the patients, for example.
# Method: The compound 1 was repeatedly administered between meals once a day in Step 1, and orally administered between meals every other day in Step 2. In Step 1, the initial dose was set to 4.8 mg/m^2 (level 1), and the dose of the compound 1 at each level was determined depending on a body surface area. The initial dose of Step 2 (level 1 of Step 2) was set to MTD (mg/m^2/day) of Step 1. The study was continued until the disease progressed or an intolerable adverse event occurred.
# After determination of MTD for once-daily administration, administration was performed by once-daily administration, by alternate-day administration (repeated administration at cycles each involving one-day administration and one-day withdrawal period on the next day), or by a schedule involving administration for 5 consecutive days and 2-day withdrawal period, and evaluation was conducted.
# An antitumor effect on tumor was determined according to RECIST Guideline Version 1.1 (European Journal of Cancer 45 (2009) 228-247), and tumor shrinkage was evaluated by comprehensive evaluation on target lesions (lesions equal to or larger than a measurable size depending on a slice width in a diagnosis method (MRI, CT, X ray, etc.) measured at the time of enrollment) and non-target lesions (all lesions except for the target lesions).
# The overall response of each case was evaluated according to the following criteria, and the best overall response was evaluated after confirmation of duration of the effect.
# The best overall response was evaluated according to the following 5 levels. • CR: After reaching CR first, the CR status was maintained in examination performed after a lapse of at least 4 weeks or longer. • PR: After reaching PR first, the PR status was maintained in examination performed after a lapse of at least 4 weeks or longer. • SD: Neither CR nor PR was attained and no PD was confirmed in examination performed after a lapse of at least 6 weeks or longer from the start of administration. • PD: PD of target lesions or non-target lesions was confirmed without satisfying the criterion of CR, PR and SD, or the appearance of a new lesion was confirmed.
# Proportion of cases with best overall response of CR and PR in an analyte population.
# Proportion of cases with best overall response of CR, PR, Non-CR/non-PD, or SD continued for 12 weeks or longer in an analyte population.
# Patients with non-small cell lung cancer, gastrointestinal stromal tumor, thymic cancer, biliary tract cancer, breast cancer, adenoid cystic cancer, pancreatic cancer, stomach cancer, ovary cancer, skin cancer, neuroblastoma, head and neck cancer, esophageal cancer, kidney cancer, colorectal cancer, sarcoma, mesothelioma, or the like entered the test.
# [3] = tested on: patients with local progressive unresectable or metastatic GIST; assay: Study in GIST patients: safety, tolerability and eye disorder; assay type: in vivo, human; conditions: 160 mg/body/day oral
# Experimental: as §1, §2
# For the evaluation of eye disorder, interview, visual acuity examination (corrected), intraocular pressure measurement, fundus examination, slit-lamp microscopy, optical coherence tomography (OCT), and color perception examination were carried out at the time of a baseline within 14 days before enrollment and at the completion of administration of the study drug.
# Interview, visual acuity examination (corrected), intraocular pressure measurement, fundus examination, optical coherence tomography (OCT), slit-lamp microscopy, and color perception examination were further carried out as much as possible every 12 weeks after the start of administration of the study drug and every 24 weeks on week 48 or later (within ±7 days).
# In addition to the determined ophthalmologic examination described above, ophthalmologic examination was appropriately carried out when eye problems were found by regular interview by clinical investigators or by declaration from patients themselves.
# rat eye tissue = assay: Histopathological study in rat eye tissue (hematoxylin and eosin, TUNEL); assay type: in vivo, Sprague-Dawley (SD) rats
# [4] = oral administration, tumor-bearing rats
# [5] = rats, administered for consecutive days (Non-Patent Literature 6)
# [6] = 5 consecutive days and 2-day withdrawal period
# [7] = 12 mg/kg/day oral every day for 2 weeks, eyes collected 24 hours after final dose
compound,measurement,setting,value
"CCc1cc(C(N)=O)ccc1-n1nc(C(C)C)c2c(-n3cnc(-c4cnn(C)c4)c3)ccnc21 [compound 1, 3-Ethyl-4-[3-(1-methylethyl)-4-[4-(1-methyl-1H-pyrazol-4-yl)-1H-imidazol-1-yl]-1H-pyrazolo[3,4-b]pyridin-1-yl]benzamide]","distribution in tumor, retina and plasma",[1]; [4],larger amount in tumor than in the retina and plasma
same,time to removal from the retina,[1]; [4],≤ 24 h
same,time to elimination from the rat retina,[1]; [5],≤ 24 h
same,median PFS,[2],4.4 months
same,"DCR (≥12 weeks), % of patients","solid cancer patients; QD × 5, n = 18",(38.9) %
same,"DCR (≥12 weeks), number of patients","solid cancer patients; QD × 5, n = 18",7
same,"NE, % of patients","solid cancer patients; QD × 5, n = 18",(5.6) %
same,"NE, number of patients","solid cancer patients; QD × 5, n = 18",1
same,"PD, % of patients","solid cancer patients; QD × 5, n = 18",(44.4) %
same,"PD, number of patients","solid cancer patients; QD × 5, n = 18",8
same,"PR, % of patients","solid cancer patients; QD × 5, n = 18",(0.0) %
same,"PR, number of patients","solid cancer patients; QD × 5, n = 18",0
same,"RR, % of patients","solid cancer patients; QD × 5, n = 18",(0.0) %
same,"RR, number of patients","solid cancer patients; QD × 5, n = 18",0
same,"DCR (≥12 weeks), % of patients","solid cancer patients; QD, n = 16",(31.3) %
same,"DCR (≥12 weeks), number of patients","solid cancer patients; QD, n = 16",5
same,"NE, % of patients","solid cancer patients; QD, n = 16",(12.5) %
same,"NE, number of patients","solid cancer patients; QD, n = 16",2
same,"PD, % of patients","solid cancer patients; QD, n = 16",(31.3) %
same,"PD, number of patients","solid cancer patients; QD, n = 16",5
same,"PR, % of patients","solid cancer patients; QD, n = 16",(12.5) %
same,"PR, number of patients","solid cancer patients; QD, n = 16",2
same,"RR, % of patients","solid cancer patients; QD, n = 16",(12.5) %
same,"RR, number of patients","solid cancer patients; QD, n = 16",2
same,"DCR (≥12 weeks), % of patients","solid cancer patients; QOD, n = 26",(14.4) %
same,"DCR (≥12 weeks), number of patients","solid cancer patients; QOD, n = 26",4
same,"NE, % of patients","solid cancer patients; QOD, n = 26",(3.8) %
same,"NE, number of patients","solid cancer patients; QOD, n = 26",1
same,"PD, % of patients","solid cancer patients; QOD, n = 26",(57.7) %
same,"PD, number of patients","solid cancer patients; QOD, n = 26",15
same,"PR, % of patients","solid cancer patients; QOD, n = 26",(3.8) %
same,"PR, number of patients","solid cancer patients; QOD, n = 26",1
same,"RR, % of patients","solid cancer patients; QOD, n = 26",(3.8) %
same,"RR, number of patients","solid cancer patients; QOD, n = 26",1
same,frequency of occurrence of eye disorder,[3]; [6],20%
same,grade of eye disorder in all the patients,[3]; [6],grade 1
same,tolerability,[3]; [6],good tolerability
same,related adverse events observed,"[3]; 5 consecutive days and 2-day withdrawal, reversible by discontinuation or decrease in dose",digestive tract disorder and elevated plasma creatinine levels
same,elevation of the number of TUNEL-positive apoptotic cells,rat eye tissue; [7],not observed
same,histopathological change in the outer nuclear layer of the retina,rat eye tissue; [7],did not cause any histopathological change
same,ocular toxicity,rat eye tissue; [5],without exhibiting ocular toxicity
